Consider 14 compounds from US20240190880A1 (THE REGENTS OF THE UNIVERSITY OF MICHIGAN, priority 2021, published 2024).

Some results are limits rather than exact numbers.

In the first test the target is T1, ER (Homo sapiens, UniProt P03372).
T1 construct: host or cells: T47D and MCF7 human breast cancer cells
T1 sequence (P03372 1-595): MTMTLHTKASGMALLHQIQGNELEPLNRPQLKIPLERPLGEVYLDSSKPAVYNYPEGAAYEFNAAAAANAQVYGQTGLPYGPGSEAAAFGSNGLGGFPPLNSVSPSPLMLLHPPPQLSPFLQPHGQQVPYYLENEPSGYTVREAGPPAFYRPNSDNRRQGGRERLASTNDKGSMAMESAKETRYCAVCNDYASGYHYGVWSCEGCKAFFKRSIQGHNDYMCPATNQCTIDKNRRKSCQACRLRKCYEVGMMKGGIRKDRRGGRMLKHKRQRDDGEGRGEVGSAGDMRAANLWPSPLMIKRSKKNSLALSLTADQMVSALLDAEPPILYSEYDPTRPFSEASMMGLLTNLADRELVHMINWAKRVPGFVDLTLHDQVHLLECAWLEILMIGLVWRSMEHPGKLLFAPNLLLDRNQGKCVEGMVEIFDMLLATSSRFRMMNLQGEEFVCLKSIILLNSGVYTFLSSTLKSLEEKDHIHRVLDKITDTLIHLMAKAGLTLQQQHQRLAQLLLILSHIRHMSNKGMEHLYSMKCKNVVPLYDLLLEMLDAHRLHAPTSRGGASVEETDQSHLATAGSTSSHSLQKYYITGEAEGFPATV
As to the kind of experiment: ER degradation activity, in-cell western blot analysis in T47D cells. Format: cell-based. Particulars: 16 hours, Table A does not say which cell line (T47D or MCF7), read-out: Potency (DC50). Summed up: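 Human T47D cells (DMEM, 10% FBS) are dosed for 16 h with 0.5% DMSO final and probed with 680- and 800-dye secondary antibodies. Relative ER is calculated against vehicle and untreated wells.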
As a reminder, the DC50 is the concentration at which degradation of the target reaches its halfway point. As to `O=C1CCC(N2C(=O)c3cc4c(cc3C2=O)CN(CC(=O)N2CCC3(CC2)CN(c2ccc([C@@H]5c6ccc(O)cc6CC[C@@H]5c5ccccc5)cc2)C3)C4)C(=O)N1` (mixture of isomers) [E 10, Rac-2-(2,6-dioxopiperidin-3-yl)-6-(2-(2-(4-((1R,2S)-6-hydroxy-2-phenyl-1,2,3,4-tetrahydronaphthalen-1-yl)phenyl)-2,7-diazaspiro[3.5]nonan-7-yl)-2-oxoethyl)-6,7-dihydropyrrolo[3,4-f]isoindole-1,3(2H,5H)-dione], the DC50 was 10 to 100 nM.
In the case of `C[C@@H]1Cc2c([nH]c3ccccc23)[C@@H](c2c(F)cc(-c3cnc(C(=O)N4CCC(N5Cc6cc7c(cc6C5)C(=O)N(C5CCC(=O)NC5=O)C7=O)CC4)cn3)cc2F)N1CC(F)F` (stereo partly drawn) [E 344, 6-(1-(5-(4-((1R,3R)-2-(2,2-difluoroethyl)-3-methyl-2,3,4,9-tetrahydro-1H-pyrido[3,4-b]indol-1-yl)-3,5-difluorophenyl)pyrazine-2-carbonyl)piperidin-4-yl)-2-(2,6-dioxopiperidin-3-yl)-6,7-dihydropyrrolo[3,4-f]isoindole-1,3(2H,5H)-dione], the DC50 was above 100 nM.
Still for that read-out and setting: then `O=C1CCC(N2Cc3cc4c(cc3C2=O)CN(C(=O)CN2CCC3(CC2)CCN(c2ccc([C@@H]5c6ccc(O)cc6CC[C@@H]5c5ccccc5)cc2)CC3)C4)C(=O)N1` (stereo partly drawn) [E 354, 3-(6-(2-(9-(4-((1R,2S)-6-hydroxy-2-phenyl-1,2,3,4-tetrahydronaphthalen-1-yl)phenyl)-3,9-diazaspiro[5.5]undecan-3-yl)acetyl)-1-oxo-3,5,6,7-tetrahydropyrrolo[3,4-f]isoindol-2(1H)-yl)piperidine-2,6-dione], with below 10 nM; and `C[C@@H]1Cc2c([nH]c3ccccc23)[C@@H](c2c(F)cc(N3CC4(CCN(C(=O)CN5Cc6cc7c(cc6C5)C(=O)N(C5CCC(=O)NC5=O)C7)C4)C3)cc2F)N1CC(F)F` (stereo partly drawn) [E 66, 3-(6-(2-(2-(4-((1R,3R)-2-(2,2-difluoroethyl)-3-methyl-2,3,4,9-tetrahydro-1H-pyrido[3,4-b]indol-1-yl)-3,5-difluorophenyl)-2,6-diazaspiro[3.4]octan-6-yl)-2-oxoethyl)-1-oxo-3,5,6,7-tetrahydropyrrolo[3,4-f]isoindol-2(1H)-yl)piperidine-2,6-dione], with below 10 nM.
With `O=C1CCC(N2C(=O)c3cc4c(cc3C2=O)CCN(CC(=O)N2CCC3(CC2)CCN(c2ccc([C@@H]5c6ccc(O)cc6CC[C@@H]5c5ccc(F)cc5)cc2)CC3)CC4)C(=O)N1` (stereo partly drawn) [E 183, 2-(2,6-dioxopiperidin-3-yl)-7-(2-(9-(4-((1R,2S)-2-(4-fluorophenyl)-6-hydroxy-1,2,3,4-tetrahydronaphthalen-1-yl)phenyl)-3,9-diazaspiro[5.5]undecan-3-yl)-2-oxoethyl)-6,7,8,9-tetrahydroazepino[4,5-f]isoindole-1,3(2H,5H)-dione], the DC50 was above 100 nM.
For `O=C1CCC(N2C(=O)c3cc4c(cc3C2=O)CN(C2CCC3(CC2)CCN(c2ccc([C@@H]5c6ccc(O)cc6CC[C@@H]5c5ccccc5)cc2)CC3)C4)C(=O)N1` (stereo partly drawn) [E 160, 2-(2,6-dioxopiperidin-3-yl)-6-(3-(4-((1R,2S)-6-hydroxy-2-phenyl-1,2,3,4-tetrahydronaphthalen-1-yl)phenyl)-3-azaspiro[5.5]undecan-9-yl)-6,7-dihydropyrrolo[3,4-f]isoindole-1,3(2H,5H)-dione], the DC50 was above 100 nM.
Turning to `C[C@@H]1Cc2c([nH]c3ccccc23)[C@@H](c2c(F)cc(N3CCC(N4CCC(CC(=O)N5Cc6cc7c(cc6C5)C(=O)N(C5CCC(=O)NC5=O)C7)CC4)CC3)cc2F)N1CC(F)F` (stereo partly drawn) [E 94, 3-(6-(2-(1′-(4-((1R,3R)-2-(2,2-difluoroethyl)-3-methyl-2,3,4,9-tetrahydro-1H-pyrido[3,4-b]indol-1-yl)-3,5-difluorophenyl)-[1,4′-bipiperidin]-4-yl)acetyl)-1-oxo-3,5,6,7-tetrahydropyrrolo[3,4-f]isoindol-2(1H)-yl)piperidine-2,6-dione], the half-maximal degradation concentration (DC50) is below 10 nM.
For `C[C@@H]1Cc2c([nH]c3ccccc23)[C@@H](c2c(F)cc(N3CCC4(CCN(C(=O)CN5Cc6cc7c(cc6C5)C(=O)N(C5CCC(=O)NC5=O)C7)C4)C3)cc2F)N1CC(F)F` (stereo partly drawn) [E 68, 3-(6-(2-(7-(4-((1R,3R)-2-(2,2-difluoroethyl)-3-methyl-2,3,4,9-tetrahydro-1H-pyrido[3,4-b]indol-1-yl)-3,5-difluorophenyl)-2,7-diazaspiro[4.4]nonan-2-yl)-2-oxoethyl)-1-oxo-3,5,6,7-tetrahydropyrrolo[3,4-f]isoindol-2(1H)-yl)piperidine-2,6-dione], the DC50 is 10 to 100 nM.
Still for that read-out and setting: then `O=C1CCC(N2Cc3cc4c(cc3C2=O)CN(CC(=O)N2CCC3(C2)CN(c2ccc([C@@H]5c6ccc(O)cc6CC[C@@H]5c5ccccc5)cc2)C3)C4)C(=O)N1` (mixture of isomers) [E 6, rac-3-(6-(2-(2-(4-((1R,2S)-6-hydroxy-2-phenyl-1,2,3,4-tetrahydronaphthalen-1-yl)phenyl)-2,6-diazaspiro[3.4]octan-6-yl)-2-oxoethyl)-1-oxo-3,5,6,7-tetrahydropyrrolo[3,4-f]isoindol-2(1H)-yl)piperidine-2,6-dione], with below 10 nM.

Still in this test, the particulars now being: compounds 16 hours, Table A does not say whether T47D or MCF7, read-out: Potency (DC50).
As for `O=C1CCC(N2C(=O)c3cc4c(cc3C2=O)CN(CC(=O)N2CCC(Oc3ccc([C@@H]5c6ccc(O)cc6CC[C@@H]5c5ccccc5)cc3)CC2)C4)C(=O)N1` (stereo partly drawn) [E 489, 2-(2,6-dioxopiperidin-3-yl)-6-(2-(4-(4-((1R,2S)-6-hydroxy-2-phenyl-1,2,3,4-tetrahydronaphthalen-1-yl)phenoxy)piperidin-1-yl)-2-oxoethyl)-6,7-dihydropyrrolo[3,4-f]isoindole-1,3(2H,5H)-dione], the DC50 was in the range of 10 to 100 nM.
Take `C[C@@H]1Cc2cc(O)ccc2[C@@H](c2ccc(N3CCC4(CCN(C(=O)CN5Cc6cc7c(cc6C5)C(=O)N(C5CCC(=O)NC5=O)C7=O)CC4)CC3)cc2)N1c1ccc(F)cc1` (stereo partly drawn) [E 462, 2-(2,6-dioxopiperidin-3-yl)-6-(2-(9-(4-((1R,3R)-2-(4-fluorophenyl)-6-hydroxy-3-methyl-1,2,3,4-tetrahydroisoquinolin-1-yl)phenyl)-3,9-diazaspiro[5.5]undecan-3-yl)-2-oxoethyl)-6,7-dihydropyrrolo[3,4-f]isoindole-1,3(2H,5H)-dione]: the DC50 was in the range of 10 to 100 nM.
On to `O=C1CCC(N2C(=O)c3cc4c(cc3C2=O)CC2(C4)CN(CC3CCN(c4ccc([C@@H]5c6ccc(O)cc6CC[C@@H]5c5ccccc5)cc4)CC3)C2)C(=O)N1` (stereo partly drawn) [E 500, 2′-(2,6-dioxopiperidin-3-yl)-1-((1-(4-((1R,2S)-6-hydroxy-2-phenyl-1,2,3,4-tetrahydronaphthalen-1-yl)phenyl)piperidin-4-yl)methyl)-5′,7′-dihydro-1′H-spiro[azetidine-3,6′-cyclopenta[f]isoindole]-1′,3′(2′H)-dione], for which the DC50 is above 100 nM.
On the same count and under the same terms, as for `O=C1CCC(N2Cc3cc4c(cc3C2=O)CN(C(=O)[C@H]2CC[C@H](CN3CC(Oc5ccc([C@@H]6c7ccc(O)cc7CC[C@@H]6c6ccccc6)cc5)C3)CC2)C4)C(=O)N1` (mixture of isomers) [E 491], the figure is 10 to 100 nM; as for `C[C@@H]1Cc2c(ccc3[nH]ncc23)[C@@H](c2c(F)cc(NC3CN(C(=O)[C@H]4CC[C@H](N5Cc6cc7c(cc6C5)C(=O)N(C5CCC(=O)NC5=O)C7=O)CC4)C3)cc2F)N1CC(F)F` (some centres unmarked) [E 425], below 10 nM.
